Measured values reported in article PMC11241255 (International Journal of Molecular Sciences, 2024).

Assays:
rodent models = conditions: cited from earlier work
SH-SY5Y cells = test: Mitochondrial membrane potential (ΔΨm) assay (TMRE); type: cell-based, Human; conditions: 12 h pre-treatment, 200 μM H2O2 2 h
Procedure: (§1) Human neuroblastoma SH-SY5Y cells (ATCC CRL-2266, Manassas, VA, USA) were maintained in Dulbecco’s modified Eagle’s medium (DMEM, Gibco) supplemented with 10% fetal bovine serum (FBS), 1% kanamycin, and 1% penicillin (Thermo Fisher Scientific, Waltham, MA, USA) at 37 °C with 5% CO2, and a 95% humidified atmosphere in the incubator. The experiments were executed at 80–90% cell confluency.
The mitochondrial membrane potential was measured using the tetramethylrhodamine, methyl ester (TMRE) staining method. The cells (1 × 10^4 cells/well) were seeded in a 96-well sterile plate; after which, they were pre-treated with the extract for 12 h. The extracts and phytocompounds were removed, followed by a 2 h treatment with H2O2 (200 μM). A 1 μM amount of TMRE was added to the cells and incubated for 1 h at 37 °C. The fluorescence was assessed (Ex 549 nm, Ems 575 nm) using a microplate reader (Synergy-H1 BioTek, Agilent, USA). The ΔΨm was calculated as a percentage of the untreated control cells (100%) in triplicate measurements.

[1] = cited from earlier work
[2] = system: SH-SY5Y neuroblastoma cell line; test: Cell viability / cytotoxicity assay (WST-8); type: cell-based, Human
Procedure: as §1
The cells were seeded (1 × 10^4 cells/well) in 96-well sterile plates and pre-treated with various extract concentrations (1, 10, 30 µg/mL) for 24 h. The extracts and phytocompounds were removed and incubated for 2 h with 10% WST-8 reagent (Roche, Grenzach-Wyhlen, Germany) as described previously. The absorbance was determined at 450 nm in a multi-plate reader (Synergy-H1 BioTek, Agilent, USA). The percent cytotoxicity was calculated as:Cytotoxicity % = (Ac − At)/(Ac) × 100 where Ac = absorbance of the control cells, At = absorbance of the treated cells.
The plot of percent cytotoxicity versus sample concentration was used to calculate the extract concentration that killed 50% of the cells (IC50).

C=C(C)[C@H]1CC=C(C)C(=O)C1 [carvone, D-carvone]
LD50 (rodent models): 1640 mg/kg | MMP (% ΔΨm vs untreated cells) (SH-SY5Y cells; 0.1 µg/mL): 71.61 ± 0.70% | MMP (% ΔΨm vs untreated cells) (SH-SY5Y cells; 1 µg/mL): 80.80 ± 1.20% | MMP (% ΔΨm vs untreated cells) (SH-SY5Y cells; 10 µg/mL): 85.18 ± 4.96% | MMP (% ΔΨm vs untreated cells) (SH-SY5Y cells; 30 µg/mL): 87.19 ± 6.26% | BBB permeability [1]: can cross BBB | Cytotoxicity (cell viability) in SH-SY5Y [2]: No significant difference
